# Assay results published in patent US6586365B2, “Method for reducing pest damage to corn by treating transgenic corn seeds with clothianidin pesticide” (priority 2000, dated 2003).
# Like-named read-outs stand apart in the source and are kept apart here.
# Test system: western and northern corn root worm
# Type: in vivo, corn rootworm
# Settings: for PERCENT OF CONTROL (3-6 damage level) / PERCENT OF CONTROL (4-6 damage level) / PERCENT OF CONTROL (5-6 damage level) / PERCENT PLANTS HAVING 3-6 DAMAGE LEVEL / PERCENT PLANTS HAVING 4-6 DAMAGE LEVEL / PERCENT PLANTS HAVING 5-6 DAMAGE LEVEL: Iowa 1-6 Scale; for Corn root worm damage (Iowa 1-6 scale), means across locations / Corn root worm damage in each Iowa class (Iowa 1-6 scale): class 1 / Corn root worm damage in each Iowa class (Iowa 1-6 scale): class 2 / Corn root worm damage in each Iowa class (Iowa 1-6 scale): class 3 / Corn root worm damage in each Iowa class (Iowa 1-6 scale): class 4 / Corn root worm damage in each Iowa class (Iowa 1-6 scale): class 5 / Corn root worm damage in each Iowa class (Iowa 1-6 scale): class 6: stage VT-R1
# Experimental: Corn seeds of the same hybrid species, with and without the transgenic event, were treated with clothianidin pesticide as follows. A seed treatment formulation was prepared by mixing a measured amount of clothianidin in water as a carrier and applying the formulation for one minute at room temperature to a measured weight of corn seed in a rotostatic seed treater. The respective weights of the pesticide preparation and the corn seed were calculated to provide the desired rate of treatment of pesticide on the seed. The pesticide was mixed into sufficient water to permit efficient distribution of the formulation to all of the seeds in the batch while minimizing loss of treatment formulation due to lack of uptake of the formulation by the seeds. Treated seeds were allowed to sit uncapped for at least four hours before planting.
# A field trial was run in accordance with pertinent protocols and in conformance with USDA notification requirements. The purpose of the trial was to determine the efficacy of transgenic event Cry3Bb.11231 in corn seed in combination with corn rootworm seed treatments using clothianidin.
# For each growing site that was selected, the plot design included the following:
# The following seed treatment combinations were used for each growing area:
# All seed treatments with pesticides were carried out as described in Example 1.
# For seeds having treatments numbered 3 though 7, the pesticides were applied by the methods described in Example 1. In seed treatment number 8, commercially available Force® 3G was applied to the soil in a 5″ band at the time of sowing. The levels of application are as shown and are within the ranges recommended for standard commercial practice.
# Corn seeds to be tested were planted and grown at five different locations across two Midwestern states in the United States corn belt according to the protocol described above.
# The determination of damage by corn rootworm was made according to the following protocol. At stage VT-R1, an evaluation of corn rootworm damage was carried out by methods that are well known in the industry, and damage by corn rootworm was reported according to the Iowa 1-6 rating system. In that system, the root systems of 10 corn plants per plot are recovered and scored using the 1-6 rating scale, where: 1=no injury or only a few minor feeding scars, 2=feeding injury evident, but no roots eaten back to 1 ½ inches of the plant, 3=at least one root eaten off to within 1 ½ inches of the plant, but never an entire node of roots destroyed, 4=one node of roots eaten back to within 1 ½ inches of the plant, 5=two nodes (circles) of roots eaten back to within 1 ½ inches of the plant, 6=three nodes (circles) of roots eaten back to within 1 ½ inches of the plant.
# The combinations of clothianidin seed treatment with corn seed having a Cry3Bb.11231 transgenic event were tested for possible synergy at three levels of rootworm damage. In the first test, shown in Table 2(a), the percentage of test plants having damage levels of from 3 to 6, on the Iowa 1-6 Scale, were determined for the control and for seeds treated with the pesticide at two levels, and for seeds having the transgenic event, alone and in combination. The following formula was then used to calculate a “synergy threshold”:
# (% of control Cry3Bb.11231)*(% of control clothianidin treatment)/100.
# This threshold was compared against the percent of control for the treatment combinations (i.e., Cry3Bb.11231 with clothianidin @ 100 gm/100 kg and Cry3Bb.11231 with clothianidin @ 300 gm/100 kg). If the treatment combination percent of control was below the threshold, then it was concluded that there was synergy.
# [1] = clothianidin seed treatment @ 100 g/100 kg seed
# [2] = clothianidin seed treatment @ 300 g/100 kg seed
# [3] = clothianidin seed treatment @ 400 g/100 kg seed
smiles,measurement,setting,value
"CN/C(=N\[N+](=O)[O-])NCc1cnc(Cl)s1 [Clothianidin, N-[(2-chloro-5-thiazoyl)methyl]-N′-methyl-N″-nitro,[C(E)]-(9Cl)-guanidine]",PERCENT OF CONTROL (3-6 damage level),clothianidin @ 100 gm/100 kg,96.6%
same,PERCENT OF CONTROL (4-6 damage level),clothianidin @ 100 gm/100 kg,86.9%
same,PERCENT OF CONTROL (5-6 damage level),clothianidin @ 100 gm/100 kg,39.4%
same,PERCENT PLANTS HAVING 3-6 DAMAGE LEVEL,clothianidin @ 100 gm/100 kg,96.6%
same,PERCENT PLANTS HAVING 4-6 DAMAGE LEVEL,clothianidin @ 100 gm/100 kg,71.2%
same,PERCENT PLANTS HAVING 5-6 DAMAGE LEVEL,clothianidin @ 100 gm/100 kg,15.8%
same,PERCENT OF CONTROL (3-6 damage level),clothianidin @ 300 gm/100 kg,91.5%
same,PERCENT OF CONTROL (4-6 damage level),clothianidin @ 300 gm/100 kg,50.65%
same,PERCENT OF CONTROL (5-6 damage level),clothianidin @ 300 gm/100 kg,23.9%
same,PERCENT PLANTS HAVING 3-6 DAMAGE LEVEL,clothianidin @ 300 gm/100 kg,91.5%
same,PERCENT PLANTS HAVING 4-6 DAMAGE LEVEL,clothianidin @ 300 gm/100 kg,41.5%
same,PERCENT PLANTS HAVING 5-6 DAMAGE LEVEL,clothianidin @ 300 gm/100 kg,9.6%
same,"Corn root worm damage (Iowa 1-6 scale), means across locations",[1],3.9
same,Corn root worm damage in each Iowa class (Iowa 1-6 scale): class 1,[1],0
same,Corn root worm damage in each Iowa class (Iowa 1-6 scale): class 2,[1],6
same,Corn root worm damage in each Iowa class (Iowa 1-6 scale): class 3,[1],45
same,Corn root worm damage in each Iowa class (Iowa 1-6 scale): class 4,[1],98
same,Corn root worm damage in each Iowa class (Iowa 1-6 scale): class 5,[1],23
same,Corn root worm damage in each Iowa class (Iowa 1-6 scale): class 6,[1],5
same,"Corn root worm damage (Iowa 1-6 scale), means across locations",[2],3.4
same,Corn root worm damage in each Iowa class (Iowa 1-6 scale): class 1,[2],0
same,Corn root worm damage in each Iowa class (Iowa 1-6 scale): class 2,[2],16
same,Corn root worm damage in each Iowa class (Iowa 1-6 scale): class 3,[2],94
same,Corn root worm damage in each Iowa class (Iowa 1-6 scale): class 4,[2],60
same,Corn root worm damage in each Iowa class (Iowa 1-6 scale): class 5,[2],16
same,Corn root worm damage in each Iowa class (Iowa 1-6 scale): class 6,[2],2
same,"Corn root worm damage (Iowa 1-6 scale), means across locations",[3],3.0
same,Corn root worm damage in each Iowa class (Iowa 1-6 scale): class 1,[3],1
same,Corn root worm damage in each Iowa class (Iowa 1-6 scale): class 2,[3],34
same,Corn root worm damage in each Iowa class (Iowa 1-6 scale): class 3,[3],113
same,Corn root worm damage in each Iowa class (Iowa 1-6 scale): class 4,[3],37
same,Corn root worm damage in each Iowa class (Iowa 1-6 scale): class 5,[3],1
same,Corn root worm damage in each Iowa class (Iowa 1-6 scale): class 6,[3],0
same,effectiveness against corn rootworm damage (in words),"seed treatment alone, all levels tested (100, 300, 400 gm/100 kg)",effective against corn rootworm damage at all levels tested
